In patent US20070155764A1, “NOVEL SUBSTITUTED PYRIMIDINYLOXY UREAS USEFUL AS INHIBITORS OF PROTEIN KINASES” (KALYPSYS, INC., priority 2005, published 2007):

Assays:
[1] = molecular target: T1, human B-Raf protein kinase (Homo sapiens, UniProt P15056); assay: In vitro B-Raf/Mek1 composite kinase assay; type: biochemical; settings: recombinant GST-tagged human B-Raf (Δ1-415) with inactive Mek1, 2 μM ATP
T1 construct: GST (N); purchased Upstate Inc. 14-530 (B-Raf); 14-420 (Mek1)
Method in brief: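 Luminescent ATP-depletion assay using recombinant N-terminal GST-tagged human B-Raf (Δ1-415, 1 ng/well) in MOPS pH 7.2 buffer with 10 mM MgCl2. Compounds were preincubated 15 min at about 22° C, then the reaction ran 2 h before PKLight readout. Efficacy is expressed as percentage of positive-control (Bay 43-9006) activity.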

[2] = molecular target: T2, VEGFR2 kinase (Homo sapiens, UniProt P35968); assay: In vitro VEGFR2 kinase assay; type: biochemical; settings: ADP Quest assay, poly Glu:Tyr substrate, 60 μM ATP
T2 construct: purchased Invitrogen Inc PV3660
Method in brief: (§1)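 Compound was preincubated 10 min at ~22 °C with 20 ng VEGFR2 or 25 ng PDGFRβ, then poly Glu:Tyr (4:1) substrate (0.25 μg) with 60 μM ATP (in added buffer) was reacted 2 h at 30 °C. ADP Quest resorufin fluorescence was read (ex 530/em 580) after 30 min. Efficacy is expressed as percent of positive-control (Bay 43-9006) activity, with DMSO as negative control.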

[3] = molecular target: T3, PDGFRβ kinase (Homo sapiens, UniProt P09619); assay: In vitro PDGFRβ kinase assay; type: biochemical; settings: ADP Quest assay, poly Glu:Tyr substrate, 60 μM ATP
T3 construct: purchased Invitrogen Inc. P3082
Method in brief: as §1

[4] = test system: HT-29 human colon carcinoma tumor cells; assay: In vivo anti-tumor activity, HT-29 xenograft; settings: 60 mg/kg once daily by oral gavage; for T/C (%): HT-29 subcutaneous tumors in female Balb/C nu/nu mice, treated/control average tumor size at end of study; for Survival: HT-29 tumor-bearing female Balb/C nu/nu mice, surviving/total
Description: In Vivo Anti-Tumor Activity
Acclimated female Balb/C nu/nu mice are injected subcutaneously into the flank with cell pellets of 5×10^6 HT-29 human colon carcinoma tumor cells (ATCC #HTB-38). The mice are fed sterile rodent chow and water ad libitum, and kept in pathogen-free, sterile-filtered cages with half-day light/dark cycles. Tumors are allowed to grow until they reach an average size of 100-150 mm^3, determined by caliper measurement. One day before beginning treatment, mice are randomized by tumor size into evenly distributed cohorts. Mice are dosed once daily by oral gavage (10 ml/kg) with compounds formulated as solutions in Cremaphor EL:Ethanol:Water, at a 1:1:6 ratio. Control mice are dosed with the formulation vehicle only. Tumor size and mouse weight are monitored every three to four days. At the end of the study, treatment efficacy is determined by the T/C value, calculated by dividing the average tumor size of a compound-treated cohort by the average tumor size of the control-treated cohort, expressed as a percentage. Therefore, anti-tumor efficacy is inversely proportional to the T/C.

T3 sequence (P09619 33-1106): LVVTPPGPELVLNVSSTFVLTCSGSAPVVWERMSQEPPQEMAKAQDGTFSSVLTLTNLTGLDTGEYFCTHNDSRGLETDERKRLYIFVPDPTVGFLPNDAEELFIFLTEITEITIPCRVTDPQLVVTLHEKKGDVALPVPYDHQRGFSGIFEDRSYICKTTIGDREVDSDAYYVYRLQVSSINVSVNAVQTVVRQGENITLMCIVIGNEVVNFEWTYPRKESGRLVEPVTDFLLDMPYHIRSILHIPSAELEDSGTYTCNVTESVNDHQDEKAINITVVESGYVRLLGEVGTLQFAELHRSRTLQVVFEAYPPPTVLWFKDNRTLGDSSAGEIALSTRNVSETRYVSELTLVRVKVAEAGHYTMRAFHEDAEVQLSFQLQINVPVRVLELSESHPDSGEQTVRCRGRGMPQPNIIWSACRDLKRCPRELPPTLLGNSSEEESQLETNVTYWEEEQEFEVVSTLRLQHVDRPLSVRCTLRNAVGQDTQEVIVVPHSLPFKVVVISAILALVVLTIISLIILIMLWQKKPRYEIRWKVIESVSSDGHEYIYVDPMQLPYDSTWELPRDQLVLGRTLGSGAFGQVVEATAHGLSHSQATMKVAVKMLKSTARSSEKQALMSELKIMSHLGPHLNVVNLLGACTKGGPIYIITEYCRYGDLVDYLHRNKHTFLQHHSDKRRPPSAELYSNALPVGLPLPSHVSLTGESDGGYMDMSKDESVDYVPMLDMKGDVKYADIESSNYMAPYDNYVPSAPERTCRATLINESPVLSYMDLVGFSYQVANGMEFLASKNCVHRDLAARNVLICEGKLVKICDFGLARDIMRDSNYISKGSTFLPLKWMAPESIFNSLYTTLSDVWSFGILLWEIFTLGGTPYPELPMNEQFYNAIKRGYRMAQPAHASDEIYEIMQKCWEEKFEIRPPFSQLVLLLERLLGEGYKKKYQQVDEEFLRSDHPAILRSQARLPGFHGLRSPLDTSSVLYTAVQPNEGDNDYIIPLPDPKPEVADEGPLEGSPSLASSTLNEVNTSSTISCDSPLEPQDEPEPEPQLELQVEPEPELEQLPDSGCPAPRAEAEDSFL
T2 sequence (P35968 20-1356): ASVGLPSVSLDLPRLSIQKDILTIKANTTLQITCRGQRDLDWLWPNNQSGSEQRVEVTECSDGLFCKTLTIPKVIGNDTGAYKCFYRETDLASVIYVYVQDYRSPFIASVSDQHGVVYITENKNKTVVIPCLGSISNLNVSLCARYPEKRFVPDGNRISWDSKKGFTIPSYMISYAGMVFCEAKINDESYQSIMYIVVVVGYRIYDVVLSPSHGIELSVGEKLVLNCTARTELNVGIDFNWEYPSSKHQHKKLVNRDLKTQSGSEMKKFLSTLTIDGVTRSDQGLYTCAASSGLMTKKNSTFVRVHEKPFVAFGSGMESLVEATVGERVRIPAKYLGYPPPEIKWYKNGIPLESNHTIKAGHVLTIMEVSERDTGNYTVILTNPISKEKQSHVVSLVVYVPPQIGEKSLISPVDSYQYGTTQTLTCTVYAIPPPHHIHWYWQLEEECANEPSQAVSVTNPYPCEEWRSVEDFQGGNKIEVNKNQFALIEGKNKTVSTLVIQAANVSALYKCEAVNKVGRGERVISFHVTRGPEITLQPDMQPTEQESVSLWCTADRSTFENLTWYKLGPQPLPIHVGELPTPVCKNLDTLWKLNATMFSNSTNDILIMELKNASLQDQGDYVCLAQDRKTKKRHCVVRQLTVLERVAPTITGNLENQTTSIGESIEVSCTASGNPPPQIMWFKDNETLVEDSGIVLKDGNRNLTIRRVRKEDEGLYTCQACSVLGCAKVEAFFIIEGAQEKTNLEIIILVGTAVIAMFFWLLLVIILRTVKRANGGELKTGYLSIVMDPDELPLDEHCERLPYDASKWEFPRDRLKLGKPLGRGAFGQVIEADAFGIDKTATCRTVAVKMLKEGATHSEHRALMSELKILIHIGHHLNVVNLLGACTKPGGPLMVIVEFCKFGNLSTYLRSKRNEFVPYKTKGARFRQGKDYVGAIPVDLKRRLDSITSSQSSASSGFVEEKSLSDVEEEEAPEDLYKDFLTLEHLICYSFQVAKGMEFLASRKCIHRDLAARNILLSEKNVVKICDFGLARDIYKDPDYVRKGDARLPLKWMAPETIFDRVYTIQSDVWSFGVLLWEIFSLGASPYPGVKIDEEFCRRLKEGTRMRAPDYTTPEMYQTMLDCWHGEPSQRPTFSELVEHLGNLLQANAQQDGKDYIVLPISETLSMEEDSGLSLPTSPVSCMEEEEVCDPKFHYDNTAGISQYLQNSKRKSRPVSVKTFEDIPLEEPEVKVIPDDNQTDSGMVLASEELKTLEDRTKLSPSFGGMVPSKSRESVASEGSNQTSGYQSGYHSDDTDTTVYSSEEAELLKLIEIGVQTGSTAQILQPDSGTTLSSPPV
T1 sequence (P15056 416-766): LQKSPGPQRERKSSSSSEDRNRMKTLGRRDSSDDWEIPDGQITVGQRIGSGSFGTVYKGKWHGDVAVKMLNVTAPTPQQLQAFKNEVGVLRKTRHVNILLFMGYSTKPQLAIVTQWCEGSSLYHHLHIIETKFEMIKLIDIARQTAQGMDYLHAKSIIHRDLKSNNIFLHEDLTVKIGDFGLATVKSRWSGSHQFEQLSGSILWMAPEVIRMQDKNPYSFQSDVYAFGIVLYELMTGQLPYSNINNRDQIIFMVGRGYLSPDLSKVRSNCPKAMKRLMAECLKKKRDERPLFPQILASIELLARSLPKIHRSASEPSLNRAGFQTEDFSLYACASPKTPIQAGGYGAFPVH

SMILES	IC50 [1]	IC50 [2]	IC50 [3]	T/C (%) [4]	Survival [4]
Cn1cc(-c2cc(Oc3ccc(F)c(NC(=O)Nc4ccc(Cl)c(C(F)(F)F)c4)c3)ncn2)cn1 [Example 66, 1-(4-Chloro-3-(trifluoromethyl)phenyl)-3-(2-fluoro-5-(6-(1-methyl-1H-pyrazol-4-yl)pyrimidin-4-yloxy)phenyl)urea]	≤ 10 µM	≤ 10 µM	≤ 10 µM	11%	10/10
Cn1cc(-c2nccc(Oc3ccc(NC(=O)Nc4ccc(Cl)c(C(F)(F)F)c4)cc3)n2)cn1 [Example 65, 1-(4-Chloro-3-(trifluoromethyl)phenyl)-3-(4-(2-(1-methyl-1H-pyrazol-4-yl)pyrimidin-4-yloxy)phenyl)urea]	≤ 10 µM	≤ 10 µM	≤ 10 µM	25%	10/10
N#CCn1cc(-c2cc(Oc3cccc(NC(=O)Nc4ccc(Cl)c(C(F)(F)F)c4)c3)ncn2)cn1 [Example 64, 1-(4-Chloro-3-(trifluoromethyl)phenyl)-3-(3-(6-(1-(cyanomethyl)-1H-pyrazol-4-yl)pyrimidin-4-yloxy)phenyl)urea]	≤ 10 µM	≤ 10 µM	≤ 10 µM		
Cc1nc(C)c(-c2cc(Oc3ccc(NC(=O)Nc4ccc(Cl)c(C(F)(F)F)c4)cc3)ncn2)s1 [Example 30, 1-(4-Chloro-3-(trifluoromethyl)phenyl)-3-(4-(6-(2,4-dimethylthiazol-5-yl)pyrimidin-4-yloxy)phenyl)urea]	> 10 µM	≤ 10 µM	≤ 10 µM		
Cc1ccc(F)c(NC(=O)N(C)c2ccc(Oc3ccnc(-c4nnco4)c3)cc2)c1 [Example 112, 3-(2-Fluoro-5-methyl-phenyl)-1-methyl-1-[4-(2-[1,3,4]oxadiazol-2-yl-pyridin-4-yloxy)-phenyl]-urea]	≤ 10 µM	> 10 µM	≤ 10 µM		
O=C(Nc1cccc(Oc2cc(-c3ccno3)ncn2)c1)Nc1ccc(Cl)c(C(F)(F)F)c1 [Example 42, 1-(4-chloro-3-(trifluoromethyl)phenyl)-3-(3-(6-(isoxazol-5-yl)pyrimidin-4-yloxy)phenyl)urea]	≤ 10 µM	≤ 10 µM	≤ 10 µM		
O=C(Nc1ccc(Cl)c(C(F)(F)F)c1)Nc1cc(Oc2cc(-c3nnco3)ncn2)c(F)cc1F [Example 45, 1-(5-(6-(1,3,4-Oxadiazol-2-yl)pyrimidin-4-yloxy)-2,4-difluorophenyl)-3-(4-chloro-3-(trifluoromethyl)phenyl)urea]	≤ 10 µM	≤ 10 µM	≤ 10 µM		
CNC(=O)Cn1cc(-c2cc(Oc3cccc(NC(=O)Nc4ccc(Cl)c(C(F)(F)F)c4)c3)ncn2)cn1 [Example 56, 2-(4-(6-(3-(3-(4-Chloro-3-(trifluoromethyl)phenyl)ureido)phenoxy)pyrimidin-4-yl)-1H-pyrazol-1-yl)-N-methylacetamide]	≤ 10 µM	≤ 10 µM	≤ 10 µM		
O=C(Nc1cccc(Oc2cc(-c3nnco3)ncn2)c1)Nc1cc(CN2CCOCC2)cc(C(F)(F)F)c1 [Example 33, 1-(3-(6-(1,3,4-Oxadiazol-2-yl)pyrimidin-4-yloxy)phenyl)-3-(3-(morpholinomethyl)-5-(trifluoromethyl)phenyl)urea]	≤ 10 µM	≤ 10 µM	≤ 10 µM		
COCCOc1ccc(NC(=O)Nc2cc(Oc3ccnc(-c4cnn(C)c4)n3)c(F)cc2F)cc1C(F)(F)F [Example 75, 1-(2,4-Difluoro-5-(2-(1-methyl-1H-pyrazol-4-yl)pyrimidin-4-yloxy)phenyl)-3-(4-(2-methoxyethoxy)-3-(trifluoromethyl)phenyl)urea]	≤ 10 µM	≤ 10 µM	≤ 10 µM		
C#Cc1cccc(NC(=O)Nc2cccc(Oc3cc(-c4cnn(C)c4)ncn3)c2)c1 [Example 86, 1-(3-Ethynylphenyl)-3-(3-(6-(1-methyl-1H-pyrazol-4-yl)pyrimidin-4-yloxy)phenyl)urea]	≤ 10 µM	≤ 10 µM	≤ 10 µM		
Cc1nn(C)c(C)c1-c1cc(Oc2cccc(NC(=O)Nc3ccc(Cl)c(C(F)(F)F)c3)c2)ncn1 [Example 69, 1-(4-Chloro-3-(trifluoromethyl)phenyl)-3-(3-(6-(1,3,5-trimethyl-1H-pyrazol-4-yl)pyrimidin-4-yloxy)phenyl)urea]	≤ 10 µM	> 10 µM	> 10 µM		
O=C(Nc1ccc(Oc2cc(-c3ncno3)ncn2)cc1)Nc1ccc(Cl)c(C(F)(F)F)c1 [Example 18, 1-(4-(6-(1,2,4-Oxadiazol-5-yl)pyrimidin-4-yloxy)phenyl)-3-(4-chloro-3-(trifluoromethyl)phenyl)urea]	> 10 µM	≤ 10 µM	≤ 10 µM		
O=C(Nc1ccc(Oc2ccnc(-c3nnco3)c2)cc1)Nc1cc(CN2CCOCC2)cc(C(F)(F)F)c1 [Example 43, 1-(4-(2-(1,3,4-Oxadiazol-2-yl)pyridin-4-yloxy)phenyl)-3-(3-(morpholinomethyl)-5-(trifluoromethyl)phenyl)urea]	≤ 10 µM	≤ 10 µM	≤ 10 µM		
O=C(Nc1cccc(Oc2cc(-c3ncon3)ncn2)c1)Nc1ccc(Cl)c(C(F)(F)F)c1 [Example 10, 1-(3-(6-(1,2,4-Oxadiazol-3-yl)pyrimidin-4-yloxy)phenyl)-3-(4-chloro-3-(trifluoromethyl)phenyl)urea]	≤ 10 µM	≤ 10 µM	≤ 10 µM		
Cn1cc(-c2nccc(Oc3ccc(NC(=O)Nc4cccc(C(F)(F)F)c4)cc3)n2)cn1 [Example 99, 1-(4-(2-(1-Methyl-1H-pyrazol-4-yl)pyrimidin-4-yloxy)phenyl)-3-(3-(trifluoromethyl)phenyl)urea]	≤ 10 µM	≤ 10 µM	≤ 10 µM		
Cc1nc(-c2cc(Oc3cccc(NC(=O)Nc4ccc(Cl)c(C(F)(F)F)c4)c3)ncn2)cs1 [Example 46, 1-(4-Chloro-3-(trifluoromethyl)phenyl)-3-(3-(6-(2-methylthiazol-4-yl)pyrimidin-4-yloxy)phenyl)urea]	≤ 10 µM	≤ 10 µM	≤ 10 µM		
COc1cc(CNC(=O)Nc2cccc(Oc3ccnc(-c4nnco4)c3)c2)cc(OC)c1OC [Example 5, 1-[3-(2-[1,3,4]Oxadiazol-2-yl-pyridin-4-yloxy)-phenyl]-3-(3,4,5-trimethoxybenzyl)-urea]	≤ 10 µM	≤ 10 µM	> 10 µM		
CNC(=O)c1cc(Oc2ccc(N(C)C(=O)Nc3cc(-n4cnc(C)c4)cc(C(F)(F)F)c3)cc2)ccn1 [Example 118, 4-(4-{1-Methyl-3-[3-(4-methyl-imidazol-1-yl)-5-trifluoromethyl-phenyl]-ureido}-phenoxy)-pyridine-2-carboxylic acid methylamide]	≤ 10 µM	≤ 10 µM	≤ 10 µM		
O=C(Nc1cccc(Oc2cc(-c3ccnc4ncnn34)ncn2)c1)Nc1ccc(Cl)c(C(F)(F)F)c1 [Example 107, 1-(3-(6-([1,2,4]Triazolo[1,5-a]pyrimidin-7-yl)pyrimidin-4-yloxy)phenyl)-3-(4-chloro-3-(trifluoromethyl)phenyl)urea]	≤ 10 µM	≤ 10 µM	≤ 10 µM		
CN(C(=O)Nc1ccc(Cl)c(C(F)(F)F)c1)c1ccc(Oc2ccnc(-c3nc(C(F)(F)F)c[nH]3)c2)cc1 [Example 120, 3-(4-Chloro-3-trifluoromethyl-phenyl)-1-methyl-1-{4-[2-(4-trifluoromethyl-1H-imidazol-2-yl)-pyridin-4-yloxy]-phenyl}-urea]	≤ 10 µM	≤ 10 µM	≤ 10 µM		
Cn1nnc(-c2cc(Oc3cccc(NC(=O)Nc4ccc(Cl)c(C(F)(F)F)c4)c3)ncn2)n1 [Example 20, 1-(4-Chloro-3-(trifluoromethyl)phenyl)-3-(3-(6-(2-methyl-2H-tetrazol-5-yl)pyrimidin-4-yloxy)phenyl)urea]	≤ 10 µM	≤ 10 µM	≤ 10 µM		
Cn1ncnc1-c1cc(Oc2ccc(NC(=O)Nc3ccc(Cl)c(C(F)(F)F)c3)cc2)ncn1 [Example 23, 1-(4-Chloro-3-(trifluoromethyl)phenyl)-3-(4-(6-(1-methyl-1H-1,2,4-triazol-5-yl)pyrimidin-4-yloxy)phenyl)urea]	≤ 10 µM	≤ 10 µM	≤ 10 µM		
